“And” between values parts separate entries of the source, which are not always exact repeats. Equal entries are not always repeated.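 Exposure lasted 48 hours, with cells grown in 96-well plates and compounds tested at five concentrations. The concentration for 50% growth inhibition is given as GI50.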 The source made the active and inactive calls. Rule as the data show it: active = GI50 up to about 1.1 µM and inactive = higher. Non-standard residues stand in square brackets, D forms with d. Residues, ends and D or L forms follow the SMILES beside them. *: point of attachment. X30 = COC1=CC(=O)N(C(=O)[C@@H](O*)C(C)C)[C@H]1Cc1ccccc1; NMeL = CN[C@@H](CC(C)C)C(=O)O; Cbz = O=C(OCc1ccccc1)*

Among the test systems are HL-60; OVCAR-8; SK-OV-3; UACC-257; MDA-N; MDA-MB-231; Hs-578T; RPMI-8226; SF-539; HOP-62; OVCAR-3; HT-29; SF-268; TK-10; ACHN; MDA-MB-435; HOP-92; SK-MEL-5; SR; MOLT-4.
Test in all cases: NCI tumour cell line growth inhibition, 48 h

Consider `COC1=CC(=O)N(C(=O)[C@@H](OC(=O)[C@@H]2CCCN2C(=O)[C@@H]2CCCN2C(=O)[C@H](CC(C)C)N(C)C(=O)[C@@H](NC(=O)[C@@H](NC(=O)OCc2ccccc2)C(C)C)C(C)C)C(C)C)[C@H]1Cc1ccccc1` (Cbz-VV[NMeL]PP-X30), for which the GI50 was > 100 µM (inactive) in the test with HL-60; > 100 µM (inactive) with OVCAR-8; 31.3 µM (inactive) in the test on SK-OV-3; 76 µM (inactive) in the test with UACC-257; > 100 µM (inactive) in the test with MDA-N; 15 µM (inactive) with MDA-MB-231. Besides, the GI50 in the test with Hs-578T was > 100 µM (inactive); in the test with RPMI-8226 it was 17.6 µM (inactive); with SF-539, 15 µM (inactive); in the test with HOP-62, 21.4 µM (inactive); in the test on OVCAR-3, 47.1 µM (inactive); in the test with HT-29, > 100 µM (inactive). The GI50 with SF-268 is > 100 µM (inactive); in the test on TK-10, 64.7 µM (inactive); with ACHN, > 100 µM (inactive); in the test with MDA-MB-435 it was > 100 µM (inactive); in the test on HOP-92 it was 20.5 µM (inactive).
In the case of `COc1ccccc1/N=N/c1c(O)ccc2ccccc12`, the GI50 in the test on OVCAR-8 was 25.8 µM (inactive) and 30.3 µM (inactive); in the test on SK-OV-3, 13.6 µM (inactive) and 18.3 µM (inactive); with MDA-N, 45.7 µM (inactive) and > 80.4 µM (inactive); in the test with MDA-MB-231, 30.2 µM (inactive) and 28.5 µM (inactive); with Hs-578T, 28.7 µM (inactive) and 26.6 µM (inactive); in the test on HOP-62 it was 15.8 µM (inactive) and 14.5 µM (inactive). Moreover, the GI50 in the test on OVCAR-3 is 31.4 µM (inactive) and 32.1 µM (inactive); with HT-29, 34.6 µM (inactive) and 30.7 µM (inactive); in the test on SF-268, 29.9 µM (inactive) and 33.4 µM (inactive); with TK-10 it was 14.6 µM (inactive) and 23.4 µM (inactive); with ACHN it was 13.6 µM (inactive); in the test with MDA-MB-435 it was 74 µM (inactive) and 78.2 µM (inactive). Also, the GI50 was 22.8 µM (inactive) and 20.7 µM (inactive) in the test on SK-MEL-5; 22.8 µM (inactive) and 14.6 µM (inactive) in the test on HOP-92; 24.3 µM (inactive) in the test with SR; 64.3 µM (inactive) in the test with MOLT-4.
As for `O=C(O)CSc1nc2ccccc2[nH]1`, the GI50 with OVCAR-8, in the test with UACC-257, in the test with MDA-N, with MDA-MB-231, with Hs-578T and in the test with HOP-62 was > 100 µM (inactive) throughout. In addition, the GI50 with OVCAR-3, in the test with HT-29, in the test with SF-268, in the test on TK-10, in the test on ACHN and in the test with MDA-MB-435 was > 100 µM (inactive) each time. Also, the GI50 with HOP-92 was > 100 µM (inactive); in the test on SR, > 100 µM (inactive); in the test on MOLT-4, 6.25 µM (inactive).
Regarding `Cc1sc2ccccc2[n+]1CCC(=O)O`, the GI50 was 11.5 µM (inactive) in the test with HL-60; > 100 µM (inactive) in the test with OVCAR-8; > 100 µM (inactive) in the test on SK-OV-3; > 100 µM (inactive) in the test with UACC-257; > 100 µM (inactive) with MDA-N; > 100 µM (inactive) in the test on MDA-MB-231. Besides, the GI50 with Hs-578T, in the test on RPMI-8226, in the test with SF-539, in the test with HOP-62, in the test on OVCAR-3 and in the test on HT-29 was > 100 µM (inactive) throughout. In addition, the GI50 in the test with SF-268, in the test with TK-10, with ACHN, in the test on MDA-MB-435, in the test on SK-MEL-5 and in the test on HOP-92 was > 100 µM (inactive) in each case.
Turning to `C=CCOc1ccc(N)c([N+](=O)[O-])c1`, the GI50 with HL-60 is > 100 µM (inactive); in the test with OVCAR-8, > 100 µM (inactive); with SK-OV-3, > 100 µM (inactive); in the test on UACC-257 it was > 100 µM (inactive); with MDA-N it was > 100 µM (inactive); in the test on MDA-MB-231, > 10 µM (inactive). The GI50 in the test on Hs-578T, in the test with RPMI-8226, in the test with SF-539, in the test with HOP-62, with HT-29 and with SF-268 was > 100 µM (inactive) throughout. The GI50 with TK-10, in the test with ACHN, in the test on MDA-MB-435, with SK-MEL-5, in the test on SR and with MOLT-4 was > 100 µM (inactive) throughout.
Turning to `C/C(=N\NC(=S)N1CC2CCC(CC2)C1)c1cccc(C)n1`, the GI50 in the test with HL-60 was 0.01 µM (active); in the test with OVCAR-8 it was 0.294 µM (active); in the test with SK-OV-3 it was 0.809 µM (active); in the test on UACC-257, 0.142 µM (active); in the test with MDA-N it was 2.82 µM (inactive); in the test with MDA-MB-231, 0.224 µM (active). Further, the GI50 in the test on Hs-578T is 4.11 µM (inactive); in the test on RPMI-8226, 0.31 µM (active); in the test with SF-539, 0.378 µM (active); with HOP-62 it was 1.06 µM (active); in the test with OVCAR-3, 0.01 µM (active); in the test with HT-29, 0.01 µM (active). Further, the GI50 is 0.533 µM (active) with SF-268; 2.54 µM (inactive) with TK-10; 0.59 µM (active) with ACHN; 1.77 µM (inactive) with MDA-MB-435; 1.96 µM (inactive) with SK-MEL-5; 2.2 µM (inactive) with HOP-92. In addition, the GI50 in the test with MOLT-4 is 0.01 µM (active).
As to `CN(C)Cc1cc(C(=O)O)cc(CN(C)C)c1O`, the GI50 in the test on HL-60, with OVCAR-8, in the test on SK-OV-3, with UACC-257, in the test on MDA-N and with MDA-MB-231 was > 100 µM (inactive) in each case. The GI50 with Hs-578T, with RPMI-8226, in the test on HOP-62, with OVCAR-3, in the test on HT-29 and in the test on SF-268 was > 100 µM (inactive) in each case. The GI50 in the test with TK-10, in the test with ACHN, in the test on MDA-MB-435, in the test with SK-MEL-5, with HOP-92 and in the test with SR was > 100 µM (inactive) in each case.
In the case of `C=C(C)c1cc(C(C)(C)C)cc(C(=C)C)c1S(C)(=O)=O`, the GI50 in the test on HL-60 is > 100 µM (inactive); in the test on OVCAR-8, > 100 µM (inactive); with SK-OV-3, > 100 µM (inactive); in the test on MDA-N it was > 100 µM (inactive); in the test on MDA-MB-231, 3.91 µM (inactive); in the test with Hs-578T, > 100 µM (inactive). The GI50 with RPMI-8226, in the test on SF-539, in the test with HOP-62, with OVCAR-3, with HT-29 and in the test on SF-268 was > 100 µM (inactive) throughout. Also, the GI50 in the test with TK-10, with ACHN, in the test on MDA-MB-435, in the test on SK-MEL-5, in the test on SR and in the test on MOLT-4 was > 100 µM (inactive) in each case.
In the case of `O/N=C1\Nc2ccccc2OCc2cc(Br)c(Br)cc2COc2ccccc2N\C1=N/O`, the GI50 in the test on HL-60 is 5.18 µM (inactive); in the test on OVCAR-8, 10.4 µM (inactive); with SK-OV-3 it was 17.2 µM (inactive); with UACC-257 it was 21.8 µM (inactive); in the test with MDA-N, 14.3 µM (inactive); in the test on MDA-MB-231, 14.8 µM (inactive). Also, the GI50 in the test on Hs-578T was 31.7 µM (inactive); in the test on RPMI-8226 it was 10.8 µM (inactive); in the test on HOP-62, 15.5 µM (inactive); in the test on OVCAR-3, 7.21 µM (inactive); in the test on HT-29, 7.85 µM (inactive); in the test on SF-268, 8.91 µM (inactive). In addition, the GI50 in the test on TK-10 was 25 µM (inactive); with ACHN it was 5.97 µM (inactive); with MDA-MB-435, 14.8 µM (inactive); in the test on SK-MEL-5 it was 12.9 µM (inactive); with HOP-92, 12.6 µM (inactive); with SR, 2.06 µM (inactive). Moreover, the GI50 in the test on MOLT-4 was 3.63 µM (inactive).
Turning to `COc1cc(C2c3cc4c(cc3OC(Nc3ccccc3)C2C)OCO4)cc(OC)c1OC` (stereo not drawn), the GI50 in the test on HL-60 was 0.275 µM (active); in the test with OVCAR-8, 1.44 µM (inactive); in the test on SK-OV-3 it was 1.08 µM (active); in the test with UACC-257, 2.82 µM (inactive); with MDA-N, 0.161 µM (active); with MDA-MB-231, 2.8 µM (inactive). The GI50 in the test on Hs-578T is 0.479 µM (active); with RPMI-8226 it was 0.608 µM (active); in the test on SF-539, 0.262 µM (active); in the test with HOP-62, 0.366 µM (active); with OVCAR-3, 0.323 µM (active); in the test with HT-29, 0.396 µM (active). Besides, the GI50 is 1.91 µM (inactive) in the test with SF-268; 23.6 µM (inactive) with TK-10; 1.39 µM (inactive) in the test with ACHN; 0.139 µM (active) in the test with MDA-MB-435; 0.828 µM (active) in the test on SR; 0.416 µM (active) with MOLT-4.
With `Cc1ccc(S(=O)(=O)N/N=C2\C(=O)Nc3cc(O)c(C(=O)O)cc32)cc1`, the GI50 in the test on OVCAR-8, in the test on SK-OV-3, in the test with UACC-257, with MDA-N, in the test on MDA-MB-231 and in the test on Hs-578T was > 100 µM (inactive) in each case. The GI50 with RPMI-8226, in the test on HOP-62, with OVCAR-3, in the test on HT-29, with SF-268 and in the test on TK-10 was > 100 µM (inactive) in each case. For the same compound, the GI50 in the test on ACHN, in the test with MDA-MB-435, in the test with SK-MEL-5, in the test with SR and with MOLT-4 was > 100 µM (inactive) each time.

The values are drawn from ChEMBL document CHEMBL1201862, “PubChem BioAssay data set” (2004).
